The text below walks through data of patent US9974869B2, “Chelated PSMA inhibitors” (Cancer Targeted Technology LLC, priority 2011, dated 2018).

One data set has as its target PSMA (Homo sapiens, UniProt Q04609). Kind of data set: PSMA inhibition (IC50, mode of inhibition). The format is biochemical.
A further data set concerns tumor. Kind of data set: Uptake over time in the fraction associated with the tumor. Particulars: in vivo. The source says:
Following administration of the chelated PSMA inhibitors herein, the imaging time may be altered to alter and/or optimize imaging characteristics.

The nature of data set [1]: Acid and base stability noted in preliminary labeling and deprotection studies. The format is physicochemical. Conditions: serine-based scaffold; beta-elimination under base, P—N bond labile to acid. An excerpt: The instability of CTT54 and its protected precursors under basic conditions is due to beta-elimination on serine to yield a dehydroalanine derivative. The acid instability was centered on the P—N bond of CTT54, which precluded the use of acid modifiers in HPLC mobile phases. […] The homoserine analog was known initially as hCTT54 and later, more formally, as CTT1000. The 2(3-hydroxypropyl)glycine is known as TG97 and CTT2000. The base stability was expected as the beta-elimination problem associated with phosphorylated serine residue would be blocked. However, the acid stability was unexpected.

PSMA, sequence (Q04609 whole entry): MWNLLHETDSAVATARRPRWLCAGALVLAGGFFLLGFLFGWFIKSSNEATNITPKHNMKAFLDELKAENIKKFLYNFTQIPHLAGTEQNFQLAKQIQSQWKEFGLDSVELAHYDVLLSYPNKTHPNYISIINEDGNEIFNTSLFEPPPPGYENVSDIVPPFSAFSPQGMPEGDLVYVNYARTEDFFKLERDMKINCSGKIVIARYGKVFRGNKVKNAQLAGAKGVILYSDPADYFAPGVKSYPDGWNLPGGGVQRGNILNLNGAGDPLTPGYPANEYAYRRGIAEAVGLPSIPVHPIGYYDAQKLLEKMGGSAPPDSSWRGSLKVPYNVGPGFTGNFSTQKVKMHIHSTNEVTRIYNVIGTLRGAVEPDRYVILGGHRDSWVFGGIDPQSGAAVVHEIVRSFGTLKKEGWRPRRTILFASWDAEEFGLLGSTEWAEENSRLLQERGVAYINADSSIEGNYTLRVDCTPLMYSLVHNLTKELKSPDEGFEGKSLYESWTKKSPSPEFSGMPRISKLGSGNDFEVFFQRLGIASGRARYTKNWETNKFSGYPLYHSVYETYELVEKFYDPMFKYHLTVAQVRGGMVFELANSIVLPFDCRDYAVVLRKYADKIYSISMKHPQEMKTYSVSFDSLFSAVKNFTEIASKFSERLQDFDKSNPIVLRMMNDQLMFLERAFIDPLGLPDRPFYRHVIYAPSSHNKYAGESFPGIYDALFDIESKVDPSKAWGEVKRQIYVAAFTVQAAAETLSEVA

On to `N[C@@H](CCC(=O)N[C@@H](CCOP(=O)(O)N[C@@H](CCC(=O)O)C(=O)O)C(=O)O)C(=O)O` [CTT1000], for which the half-inhibitory concentration (IC50) at PSMA stood at 15 nM. This lies in the double-digit nanomolar range.
In the case of `N[C@@H](CCC(=O)N[C@@H](COP(=O)(O)N[C@@H](CCC(=O)O)C(=O)O)C(=O)O)C(=O)O` [CTT-54, L-[…]- glutamyl-O-[{[(1S)-1,3-dicarboxy-propyl]amino} (hydroxy)phosphoryl]-L-serine], the “uptake in the fraction associated with the tumor over time” value in the data set with tumor is listed as “continues to increase over time”. In addition, the “acid and base stability” value in data set [1] was “acid and base stability issues were noted”.
